pKi: −log10 of the molar value. Where two headings read alike, the source gives them in different places.
How the values were obtained:
circulating platelets [1] = conditions: mouse, in vivo
circulating platelets [2] = experiment: Number of circulating platelets in mice after single intraperitoneal injection; conditions: for Time after injection at which thrombocytopenia was maximal: following injection of the compounds
Bcl-xL = Bcl-xL (Homo sapiens, UniProt Q07817); experiment: TR-FRET Bcl-xL binding assay (competition with probe F-Bak); conditions: for Ki: in the presence of 1% human serum (HS), read-out: Bcl-xL Binding Ki (nM, 1% HS); for pKi: without human serum, read-out: Bcl-xL Binding Ki
Sequence of Bcl-xL (Q07817 whole entry): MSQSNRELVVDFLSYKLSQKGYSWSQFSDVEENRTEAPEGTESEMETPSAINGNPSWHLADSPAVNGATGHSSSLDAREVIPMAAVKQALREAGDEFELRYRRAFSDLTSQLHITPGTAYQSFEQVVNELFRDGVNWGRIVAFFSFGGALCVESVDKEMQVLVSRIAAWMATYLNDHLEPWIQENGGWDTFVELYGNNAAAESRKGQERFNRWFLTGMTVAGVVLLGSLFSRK
Protocol: For the assay, test compounds were serially diluted in DMSO starting at 50 μM (2× starting concentration; 10% DMSO) and 10 μL transferred into a 384-well plate. 10 μL of a protein/probe/antibody mix was then added to each well at final concentrations listed below:
The samples were then mixed on a shaker for 1 minute and incubated for an additional 2 hours at room temperature. For each assay plate, a probe/antibody and protein/antibody/probe mixture were included as a negative and a positive control, respectively. Fluorescence was measured on the Envision (Perkin Elmer) using a 340/35 nm excitation filter and 520/525 (F-Bak) and 495/510 nm (Tb-labeled anti-his antibody) emission filters. Dissociation constants (Ki) were determined using Wang's equation (Wang, 1995, FEBS Lett. 360:111-114). The TR-FRET assay can be performed in the presence of varying concentrations of human serum (HS) or fetal bovine serum (FBS). Compounds were tested both without HS and in the presence of 1% HS.

[3] = system: Molt-4 human acute lymphoblastic leukemia cells; experiment: Molt-4 cell viability assay; format: cell-based; conditions: 10% human serum, 48 hours, CellTiter-Glo, read-out: Molt-4 Viability EC50 (nM, 10% HS)
Protocol: In one exemplary set of conditions, Molt-4 (ATCC, Manassas, Va.) human acute lymphoblastic leukemia cells were plated 12,500 cells per well in 384-well tissue culture plates (Corning, Corning, N.Y.) in a total volume of 25 μL tissue culture medium supplemented with 10% human serum (Sigma-Aldrich, St. Louis, Mo.) and treated with a 3-fold serial dilution of the compounds of interest from 10 μM to 0.0005 μM. Each concentration was tested in duplicate at least 3 separate times. The number of viable cells following 48 hours of compound treatment was determined using the CellTiter-Glo® Luminescent Cell Viability Assay according to the manufacturer's recommendations (Promega Corp., Madison, Wis.). Compounds were tested in the presence of 10% HS.

SMILES	Ki (Bcl-xL)	EC50 [3]	pKi (Bcl-xL)	further results
CC1(C)CCC(c2ccc(Cl)cc2)=C(CN2CCN(c3ccc(C(=O)NS(=O)(=O)c4ccc(N[C@H](CCN5CCOCC5)CSc5ccccc5)c(S(=O)(=O)C(F)(F)F)c4)cc3)CC2)C1 [ABT-263, Navitoclax]				Time after injection at which thrombocytopenia was maximal (circulating platelets [1]): 6 h; Time to lowest count (circulating platelets [1]; 100 mg/kg): 6 h
Cc1c(-c2ccc(N3CCc4cccc(C(=O)Nc5nc6ccccc6s5)c4C3)nc2C(=O)O)cnn1CC12CC3CC(CC(C3)C1)C2 [Compound A-1331852]				Time to lowest count (circulating platelets [2]; dose 25 mg/kg): 6 h; Time after injection at which thrombocytopenia was maximal (circulating platelets [2]): 6 h
CNCCOC12CC3(C)CC(C)(CC(Cn4ncc(-c5ccc(-c6cc7cccc(C(=O)Nc8nc9ccccc9s8)c7[nH]6)nc5C(=O)O)c4C)(C3)C1)C2 [Compound W3.27, 6-[7-(1,3-benzothiazol-2-ylcarbamoyl)-1H-indol-2-yl]-3-[1-({3,5-dimethyl-7-[2-(methylamino)ethoxy]tricyclo[3.3.1.1^3,7]dec-1-yl}methyl)-5-methyl-1H-pyrazol-4-yl]pyridine-2-carboxylic acid]	0.12 nM	3.95 nM		
Cc1c(-c2ccc(-c3cc4cccc(C(=O)Nc5nc6ccccc6s5)c4[nH]3)nc2C(=O)O)cnn1CC12CC3(C)CC(C)(C1)CC(OCCN)(C3)C2 [Compound W3.28, 3-(1-{[3-(2-aminoethoxy)-5,7-dimethyltricyclo[3.3.1.1^3,7]dec-1-yl]methyl}-5-methyl-1H-pyrazol-4-yl)-6-[7-(1,3-benzothiazol-2-ylcarbamoyl)-1H-indol-2-yl]pyridine-2-carboxylic acid]	0.17 nM	8.38 nM	> 11.00	
CNCCOC12CC3(C)CC(C)(CC(Cn4ncc(-c5ccc(-c6[nH]c7c(C(=O)Nc8nc9ccccc9s8)cccc7c6C)nc5C(=O)O)c4C)(C3)C1)C2 [Compound W3.29, 6-[7-(1,3-benzothiazol-2-ylcarbamoyl)-3-methyl-1H-indol-2-yl]-3-[1-({3,5-dimethyl-7-[2-(methylamino)ethoxy]tricyclo[3.3.1.1^3,7]dec-1-yl}methyl)-5-methyl-1H-pyrazol-4-yl]pyridine-2-carboxylic acid]	0.09 nM	185 nM	> 11.00	
Cc1c(-c2ccc(N3CCc4cccc(C(=O)Nc5nc6ccccc6s5)c4C3)nc2C(=O)O)cnn1CC12CC3(C)CC(C)(C1)CC(OCCNC1CCN(S(C)(=O)=O)CC1)(C3)C2 [Compound W3.30, 6-[8-(1,3-benzothiazol-2-ylcarbamoyl)-3,4-dihydroisoquinolin-2(1H)-yl]-3-(1-{[3,5-dimethyl-7-(2-{[1-(methylsulfonyl)piperidin-4-yl]amino}ethoxy)tricyclo[3.3.1.1^3,7]dec-1-yl]methyl}-5-methyl-1H-pyrazol-4-yl)pyridine-2-carboxylic acid]	0.891 nM	16.3 nM	10.96	
Cc1c(-c2ccc(N3CCc4cccc(C(=O)Nc5nc6ccccc6s5)c4C3)nc2C(=O)O)cnn1CC12CC3(C)CC(C)(C1)CC(OCCNC1CN(S(C)(=O)=O)C1)(C3)C2 [Compound W3.31, 6-[8-(1,3-benzothiazol-2-ylcarbamoyl)-3,4-dihydroisoquinolin-2(1H)-yl]-3-(1-{[3,5-dimethyl-7-(2-{[1-(methylsulfonyl)azetidin-3-yl]amino}ethoxy)tricyclo[3.3.1.1^3,7]dec-1-yl]methyl}-5-methyl-1H-pyrazol-4-yl)pyridine-2-carboxylic acid]	0.684 nM	14.4 nM	10.92	
Cc1c(-c2ccc(N3CCc4cccc(C(=O)Nc5nc6ccccc6s5)c4C3)nc2C(=O)O)cnn1CC12CC3(C)CC(C)(C1)CC(OCCNCCC(N)=O)(C3)C2 [Compound W3.32, 3-{1-[(3-{2-[(3-amino-3-oxopropyl)amino]ethoxy}-5,7-dimethyltricyclo[3.3.1.1^3,7]dec-1-yl)methyl]-5-methyl-1H-pyrazol-4-yl}-6-[8-(1,3-benzothiazol-2-ylcarbamoyl)-3,4-dihydroisoquinolin-2(1H)-yl]pyridine-2-carboxylic acid]	0.365 nM	108 nM	> 11.00	
CNCCOC12CC3(C)CC(C)(CC(Cn4ncc(-c5ccc(-c6ccc7[nH]nc(C(=O)Nc8nc9ccccc9s8)c7c6)nc5C(=O)O)c4C)(C3)C1)C2 [Compound W3.33, 6-[3-(1,3-benzothiazol-2-ylcarbamoyl)-1H-indazol-5-yl]-3-[1-({3,5-dimethyl-7-[2-(methylamino)ethoxy]tricyclo[3.3.1.1^3,7]dec-1-yl}methyl)-5-methyl-1H-pyrazol-4-yl]pyridine-2-carboxylic acid]	0.319 nM	422 nM	10.36	
CNCCOC12CC3(C)CC(C)(CC(Cn4ncc(-c5ccc(-c6ccc7[nH]cc(C(=O)Nc8nc9ccccc9s8)c7c6)nc5C(=O)O)c4C)(C3)C1)C2 [Compound W3.34, 6-[3-(1,3-benzothiazol-2-ylcarbamoyl)-1H-indol-5-yl]-3-[1-({3,5-dimethyl-7-[2-(methylamino)ethoxy]tricyclo[3.3.1.1^3,7]dec-1-yl}methyl)-5-methyl-1H-pyrazol-4-yl]pyridine-2-carboxylic acid]	0.27 nM	187 nM	10.39	
CNCCOC12CC3(C)CC(C)(CC(Cn4ncc(-c5ccc(-c6cnc7[nH]cc(C(=O)Nc8nc9ccccc9s8)c7c6)nc5C(=O)O)c4C)(C3)C1)C2 [Compound W3.35, 6-[3-(1,3-benzothiazol-2-ylcarbamoyl)-1H-pyrrolo[2,3-b]pyridin-5-yl]-3-[1-({3,5-dimethyl-7-[2-(methylamino)ethoxy]tricyclo[3.3.1.1^3,7]dec-1-yl}methyl)-5-methyl-1H-pyrazol-4-yl]pyridine-2-carboxylic acid]	0.16 nM	658 nM	10.66	
Cc1c(-c2ccc(-c3ccc4cccc(C(=O)Nc5nc6ccccc6s5)c4c3)nc2C(=O)O)cnn1CC12CC3(C)CC(C)(C1)CC(OCCNCCCO)(C3)C2 [Compound W3.37, 6-[8-(1,3-benzothiazol-2-ylcarbamoyl)naphthalen-2-yl]-3-{1-[(3-{2-[(3-hydroxypropyl)amino]ethoxy}-5,7-dimethyltricyclo[3.3.1.1^3,7]dec-1-yl)methyl]-5-methyl-1H-pyrazol-4-yl}pyridine-2-carboxylic acid]	0.58 nM	10.8 nM	10.52	
CNC(=O)CCNCCOC12CC3(C)CC(C)(CC(Cn4ncc(-c5ccc(N6CCc7cccc(C(=O)Nc8nc9ccccc9s8)c7C6)nc5C(=O)O)c4C)(C3)C1)C2 [Compound W3.39, 6-[8-(1,3-benzothiazol-2-ylcarbamoyl)-3,4-dihydroisoquinolin-2(1H)-yl]-3-(1-{[3,5-dimethyl-7-(2-{[3-(methylamino)-3-oxopropyl]amino}ethoxy)tricyclo[3.3.1.1^3,7]dec-1-yl]methyl}-5-methyl-1H-pyrazol-4-yl)pyridine-2-carboxylic acid]	0.44 nM	37.7 nM	10.82	
CNCCOC12CC3(C)CC(C)(CC(Cn4ncc(-c5ccc(N6CCc7cccc(C(=O)Nc8nc9ccccc9s8)c7C6)nc5C(=O)O)c4C)(C3)C1)C2 [Example 2.32.24, 6-[8-(1,3-benzothiazol-2-ylcarbamoyl)-3,4-dihydroisoquinolin-2(1H)-yl]-3-[1-({3,5-dimethyl-7-[2-(methylamino)ethoxy]tricyclo[3.3.1.1^3,7]dec-1-yl}methyl)-5-methyl-1H-pyrazol-4-yl]pyridine-2-carboxylic acid]				Platelet number after dosing (circulating platelets [2]; dose 0.61 mg/kg): 6*10^3 /mm^3; Time to lowest count (circulating platelets [2]; dose 0.61 mg/kg): 6 h; Decrease of the platelet number (circulating platelets [2]; dose 0.61 mg/kg, from normal count of approximately 6*10^5/mm^3): 100 fold; Time after injection at which thrombocytopenia was maximal (circulating platelets [2]): 6 h
